Experiments:
[1] = target: dopaminergic receptors D3 (Homo sapiens, UniProt P35462); assay: Radioligand binding assay, dopaminergic D3 receptors; settings: test compound 1×10^−6 M
From the text: (§1) The specific ligand binding to the receptors is defined as the difference between the total binding and the non-specific binding determined in the presence of the excess of unlabelled ligand.
(§2) The results are expressed as a percent of control specific binding ((measured specific binding/control specific binding)×100) and as a percent inhibition of control specific binding (100−((measured specific binding/control specific binding)×100)) obtained in the presence of the test compounds. The specific ligand binding to the receptors is defined as the difference between the total binding and the nonspecific binding determined in the presence of an excess of unlabelled ligand. Scintillation counting was the method of detection of ligand binding. The IC50 values (concentration causing a half-maximal inhibition of control specific binding) were determined by non-linear regression analysis of the competition curves generated with mean replicate values using Hill equation curve fitting (Y=D+[(A−D)/(1+(C/C50)nH)], where Y=specific binding, D=minimum specific binding, A=maximum specific binding, C=compound concentration, C50=IC50, and nH=slope factor). This analysis was performed using a software developed at Cerep (Hill software) and validated by comparison with data generated by the commercial software SigmaPlot® 4.0 for Windows® (© 1997 by SPSS Inc.). The inhibition constants (Ki) were calculated using the Cheng Prusoff equation (Ki=IC50/(1+(L/KD)), where L=concentration of radioligand in the assay, and KD=affinity of the radioligand for the receptor). A scatchard plot was used to determine the Kd.
(§3) Experimental conditions for tests are given in Table 1, the results of tests for representative compounds are given in Tables 2a and 2b (receptors D2 and D3) and in Table 3 (receptors D4).

[2] = target: T1, 5-HT6 receptor (Homo sapiens, UniProt P50406); assay: Radioligand binding assay, serotoninergic 5-HT6 receptors; settings: binding assay result in %, Table 5a;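 further: test compound at 1 µM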
T1 construct: purchased PerkinElmer
From the text: as §1, §2
(§4) Experimental conditions for tests are given in Table 4, and results of tests for representative compounds of the invention are given in Table 5a and 5b (receptors 5-HT1A, 5-HT2A, 5-HT6 and 5-HT7) and in Table 6 (receptors 5-HT2C).
5-HT6: Bryan L. Roth. Assay Protocol Book. University of North Carolina At Chapel Hill. National Institute of Mental Health. Psychoactive Drug Screening Program. Available on-line at 31 Aug. 2008: http://pdsp.med.unc.edu/UNC-CH %20Protocol%20Book.pdf

[3] = target: dopaminergic receptors D2 (Homo sapiens, UniProt P14416); assay: Radioligand binding assay, dopaminergic D2 receptors; settings: binding assay, test compound 1×10^−6 M
From the text: as §1, §2, §3

[4] = target: T2, 5-HT2A receptor (Homo sapiens, UniProt P28223); assay: Radioligand binding assay, serotoninergic 5-HT2A receptors; settings: binding assay result in %, Table 5a
T2 construct: purchased PerkinElmer
From the text: as §1, §2
5-HT2A: Bryan L. Roth. Assay Protocol Book. University of North Carolina At Chapel Hill. National Institute of Mental Health. Psychoactive Drug Screening Program. Available on-line at 31 Aug. 2008: http://pdsp.med.unc.edu/UNC-CH%20Protocol%20Book.pdf

[5] = system: α1 adrenergic receptors (rat cerebral cortex); assay: Radioligand binding assay, adrenergic α1 receptors; settings: test compound 1×10^−6 M
From the text: as §1
as §2, with “This analysis was performed using a software developed at Cerep (Hill software) and validated by comparison with data generated by the commercial software SigmaPlot® 4.0 for Windows® (© 1997 by SPSS Inc.).” left out

[6] = target: T3, 5-HT1A receptor (rat hippocampus) (Rattus norvegicus, UniProt P19327); assay: Radioligand binding assay, serotoninergic 5-HT1A receptors; settings: binding assay result in %, Table 5a;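 further: test compound at 1 µM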
T3 construct: hippocampus; from tissue; host or cells: rat hippocampus
T3 sequence (P19327 1-422): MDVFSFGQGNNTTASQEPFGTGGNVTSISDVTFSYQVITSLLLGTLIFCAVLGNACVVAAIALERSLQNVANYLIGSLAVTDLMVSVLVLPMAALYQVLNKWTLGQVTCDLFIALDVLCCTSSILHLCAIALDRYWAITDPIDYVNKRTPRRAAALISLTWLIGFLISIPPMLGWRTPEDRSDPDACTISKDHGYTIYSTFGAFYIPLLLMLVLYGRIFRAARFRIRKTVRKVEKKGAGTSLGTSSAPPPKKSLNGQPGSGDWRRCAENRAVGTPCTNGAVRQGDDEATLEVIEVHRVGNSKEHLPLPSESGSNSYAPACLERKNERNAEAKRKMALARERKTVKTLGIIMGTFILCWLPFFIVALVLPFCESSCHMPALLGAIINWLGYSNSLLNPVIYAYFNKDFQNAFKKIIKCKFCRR
From the text: as §1, §2, §4

[7] = target: T4, serotonin transporter (SERT) (Homo sapiens, UniProt P31645); assay: Radioligand binding assay, serotonin transporter (SERT); settings: binding assay, test compound 1×10^−6 M
T4 construct: expressed in transfected cells; host or cells: CHO cells
From the text: as §1, §2
Experimental conditions for tests are given in Table 12, and results of tests for representative compounds are given in Tables 13a and 13b.

[8] = target: T5, 5-HT7 receptor (Homo sapiens, UniProt P34969); assay: Radioligand binding assay, serotoninergic 5-HT7 receptors; settings: binding assay result in %, Table 5a;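 further: test compound at 1 µM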
T5 construct: purchased PerkinElmer
From the text: as §1, §2, §4
5-HT7: Bryan L. Roth. Assay Protocol Book. University of North Carolina At Chapel Hill. National Institute of Mental Health. Psychoactive Drug Screening Program. Available on-line at 31 Aug. 2008: http://pdsp.med.unc.edu/UNC-CH %20Protocol%20Book.pdf

T1 sequence (P50406 whole entry): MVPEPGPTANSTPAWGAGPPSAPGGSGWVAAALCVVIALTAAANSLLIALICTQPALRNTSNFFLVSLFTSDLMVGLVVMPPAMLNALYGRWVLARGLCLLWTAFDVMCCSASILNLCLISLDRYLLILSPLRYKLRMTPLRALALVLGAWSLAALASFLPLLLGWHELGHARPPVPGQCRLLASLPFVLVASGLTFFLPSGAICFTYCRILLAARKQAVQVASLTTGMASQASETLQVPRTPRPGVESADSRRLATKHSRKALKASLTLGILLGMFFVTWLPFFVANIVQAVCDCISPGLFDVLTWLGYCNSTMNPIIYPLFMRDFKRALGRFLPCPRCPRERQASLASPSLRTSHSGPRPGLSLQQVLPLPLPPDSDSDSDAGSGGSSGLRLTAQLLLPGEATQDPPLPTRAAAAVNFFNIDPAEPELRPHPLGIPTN
T2 sequence (P28223 whole entry): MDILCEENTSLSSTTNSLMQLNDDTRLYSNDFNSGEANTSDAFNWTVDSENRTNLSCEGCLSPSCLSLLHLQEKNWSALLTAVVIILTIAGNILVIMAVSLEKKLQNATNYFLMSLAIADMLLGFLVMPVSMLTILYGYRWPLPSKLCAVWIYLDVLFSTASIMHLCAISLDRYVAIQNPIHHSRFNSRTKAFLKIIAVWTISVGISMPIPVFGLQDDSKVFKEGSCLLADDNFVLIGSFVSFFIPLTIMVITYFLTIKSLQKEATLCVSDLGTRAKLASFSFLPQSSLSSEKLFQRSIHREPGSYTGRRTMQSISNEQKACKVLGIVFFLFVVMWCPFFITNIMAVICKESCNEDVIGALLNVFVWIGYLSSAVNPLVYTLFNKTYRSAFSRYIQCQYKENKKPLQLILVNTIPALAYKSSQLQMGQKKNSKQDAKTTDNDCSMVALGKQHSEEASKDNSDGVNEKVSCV
dopaminergic receptors D2, sequence (P14416 whole entry): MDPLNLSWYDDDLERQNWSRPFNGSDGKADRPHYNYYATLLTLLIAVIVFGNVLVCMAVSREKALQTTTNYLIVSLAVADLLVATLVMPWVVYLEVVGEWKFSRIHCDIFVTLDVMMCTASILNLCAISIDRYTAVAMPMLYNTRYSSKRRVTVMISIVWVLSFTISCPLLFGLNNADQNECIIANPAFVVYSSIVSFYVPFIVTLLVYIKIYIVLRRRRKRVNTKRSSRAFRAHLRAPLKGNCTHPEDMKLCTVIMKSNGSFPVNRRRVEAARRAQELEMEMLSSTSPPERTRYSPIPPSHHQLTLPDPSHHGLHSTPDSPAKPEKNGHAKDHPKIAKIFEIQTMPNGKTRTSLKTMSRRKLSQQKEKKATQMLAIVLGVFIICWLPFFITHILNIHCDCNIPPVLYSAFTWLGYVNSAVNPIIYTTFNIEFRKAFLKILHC
T5 sequence (P34969 whole entry): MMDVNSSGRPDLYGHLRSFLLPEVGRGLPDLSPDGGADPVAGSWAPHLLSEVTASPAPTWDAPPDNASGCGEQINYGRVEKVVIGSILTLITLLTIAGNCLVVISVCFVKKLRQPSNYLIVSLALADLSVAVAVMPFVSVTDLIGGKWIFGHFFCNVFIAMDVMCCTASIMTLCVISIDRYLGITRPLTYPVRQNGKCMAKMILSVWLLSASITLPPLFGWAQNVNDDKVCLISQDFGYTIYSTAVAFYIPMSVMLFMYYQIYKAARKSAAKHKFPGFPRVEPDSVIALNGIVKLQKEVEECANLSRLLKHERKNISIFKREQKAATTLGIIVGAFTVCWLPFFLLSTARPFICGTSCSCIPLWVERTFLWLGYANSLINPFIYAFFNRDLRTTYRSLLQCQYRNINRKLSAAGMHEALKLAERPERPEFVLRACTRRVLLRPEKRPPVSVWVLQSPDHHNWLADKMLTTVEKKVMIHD
T4 sequence (P31645 whole entry): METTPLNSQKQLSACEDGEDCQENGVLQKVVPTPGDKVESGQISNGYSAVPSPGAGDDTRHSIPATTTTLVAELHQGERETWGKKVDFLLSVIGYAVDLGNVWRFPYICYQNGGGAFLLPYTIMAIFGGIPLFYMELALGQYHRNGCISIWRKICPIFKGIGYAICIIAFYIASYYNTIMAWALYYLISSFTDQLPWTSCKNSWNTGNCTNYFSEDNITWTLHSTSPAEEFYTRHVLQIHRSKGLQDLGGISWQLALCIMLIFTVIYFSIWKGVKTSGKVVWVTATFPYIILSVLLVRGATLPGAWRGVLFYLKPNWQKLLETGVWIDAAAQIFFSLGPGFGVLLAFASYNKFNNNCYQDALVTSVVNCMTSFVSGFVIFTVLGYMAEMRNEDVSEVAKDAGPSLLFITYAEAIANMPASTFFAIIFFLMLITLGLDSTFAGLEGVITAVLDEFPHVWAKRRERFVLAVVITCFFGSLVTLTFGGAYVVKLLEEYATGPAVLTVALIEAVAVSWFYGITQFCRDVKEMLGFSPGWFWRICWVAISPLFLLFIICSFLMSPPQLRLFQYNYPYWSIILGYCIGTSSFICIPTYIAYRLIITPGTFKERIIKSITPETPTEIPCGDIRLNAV
dopaminergic receptors D3, sequence (P35462 whole entry): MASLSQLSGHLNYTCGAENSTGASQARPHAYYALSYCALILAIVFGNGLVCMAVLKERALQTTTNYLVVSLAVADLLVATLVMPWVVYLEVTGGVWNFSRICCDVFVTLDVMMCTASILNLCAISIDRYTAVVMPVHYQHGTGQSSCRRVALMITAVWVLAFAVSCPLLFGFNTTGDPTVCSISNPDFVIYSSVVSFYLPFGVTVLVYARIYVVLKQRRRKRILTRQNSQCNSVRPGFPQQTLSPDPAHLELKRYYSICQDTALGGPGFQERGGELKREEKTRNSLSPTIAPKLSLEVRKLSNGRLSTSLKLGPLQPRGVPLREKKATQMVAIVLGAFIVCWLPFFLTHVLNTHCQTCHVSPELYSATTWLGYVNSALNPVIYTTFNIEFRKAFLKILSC

| Molecule | D3 [%] [1] [%] | 5-HT6 [%] [2] [%] | D2 [%] [3] [%] | 5-HT2A [%] [4] [%] | α1 [%] [5] [%] | 5-HT1A [%] [6] [%] | SERT [%] [7] [%] | 5-HT7 [%] [8] [%] | inhibition at 1 µM [1] [%] | inhibition at 1 µM [2] [%] | inhibition at 1 µM [3] [%] | inhibition at 1 µM [4] [%] | inhibition at 1 µM [6] [%] | inhibition at 1 µM [7] [%] | inhibition at 1 µM [8] [%] |
| --- | --- | --- | --- | --- | --- | --- | --- | --- | --- | --- | --- | --- | --- | --- | --- |
| Cc1cccc(S(=O)(=O)NCC2CCN(CCCc3noc4cc(F)ccc34)CC2)c1 [Compound 36, N-[[1-[3-(6-Fluoro-1,2-benzoxazol-3-yl)propyl]-4-piperidine]methyl]-3-methylbenzenesulphonamide] | 38 | 75 | 57 | 59 | 103 | 18 | 0 | 88 | – | – | – | – | – | – | – |
| O=S(=O)(NCC1CCN(CCCc2noc3cc(F)ccc23)C1)c1ccc(F)cc1 (stereo not drawn) [Compound 252, 4-Fluoro-N-[[1-[3-(6-fluoro-1,2-benzoxazol-3-yl)propyl]pyrrolidin-3-yl]methyl]benzenesulphonamide] | – | – | – | – | – | – | – | – | 43 | 75 | 36 | 89 | 44 | -2 | 90 |
| 4-Fluoro-N-[[1-[3-(6-fluoro-1,2-benzoxazol-3-yl)propyl]azetidin-3-yl]methyl]benzenesulphonamide [Compound 147] | 74 | 86 | 88 | 95 | – | 60 | 24 | 89 | – | – | – | – | – | – | – |
| N-[[1-[3-(6-Fluoro-1,2-benzoxazol-3-yl)propyl]pyrrolidin-3-yl]methyl]-1-methyl-indole-5-sulphonamide [Compound 258] | 43 | 89 | 92 | 98 | – | 64 | 25 | 78 | – | – | – | – | – | – | – |
| O=S(=O)(NC1CCN(CCCc2noc3cc(F)ccc23)C1)c1ccc(Br)cc1 (stereo not drawn) [Compound 10, 4-Bromo-N-[1-[3-(6-fluoro-1,2-benzoxazol-3-yl)propyl]pyrrolidin-3-yl]benzenesulphonamide] | – | – | – | – | – | – | – | – | 49 | 85 | 99 | 96 | 20 | -2 | 86 |
| COc1ccc(S(=O)(=O)NC2CCN(CCCc3noc4cc(F)ccc34)C2)cc1 (stereo not drawn) [Compound 213, N-[1-[3-(6-Fluoro-1,2-benzoxazol-3-yl)propyl]pyrrolidin-3-yl]-4-methoxybenzenesulphonamide] | – | – | – | – | – | – | – | – | 57 | 78 | 81 | 100 | 63 | 12 | 93 |
| O=S(=O)(NCC1CN(CCCc2noc3cc(F)ccc23)C1)c1ccc(Cl)s1 [Compound 155, 5-Chloro-N-[[1-[3-(6-fluoro-1,2-benzoxazol-3-yl)propyl]azetidin-3-yl]methyl]thiophene-2-sulphonamide] | – | – | – | – | – | – | – | – | 68 | 62 | 61 | 89 | 42 | -12 | 82 |
| O=S(=O)(NC1CCN(CCCc2noc3cc(F)ccc23)CC1)c1cc2ccccc2s1 [Compound 324, N-[1-[3-(6-Fluoro-1,2-benzoxazol-3-yl)propyl]-4-piperidyl]benzothiophene-2-sulphonamide] | – | – | – | – | – | – | – | – | 41 | 78 | 77 | 99 | 49 | 18 | 101 |
| O=S(=O)(NC1CCN(CCCc2noc3cc(F)ccc23)C1)c1ccc(Cl)cc1 (stereo not drawn) [Compound 208, 4-Chloro-N-[1-[3-(6-fluoro-1,2-benzoxazol-3-yl)propyl]pyrrolidin-3-yl]benzenesulphonamide] | – | – | – | – | – | – | – | – | 49 | 87 | 90 | 100 | 9 | -2 | 96 |
| Cn1ccc2c(S(=O)(=O)NC3CCN(CCCc4noc5cc(F)ccc45)CC3)cccc21 [Compound 329, N-[1-[3-(6-Fluoro-1,2-benzoxazol-3-yl)propyl]-4-piperidyl]-1-methyl-indole-4-sulphonamide] | – | – | – | – | – | – | – | – | 68 | 62 | 84 | 94 | 49 | 43 | 97 |
| Cc1ccc(S(=O)(=O)NC2CCN(CCCc3noc4cc(F)ccc34)C2)cc1 (stereo not drawn) [Compound 209, N-[1-[3-(6-Fluoro-1,2-benzoxazol-3-yl)propyl]pyrrolidin-3-yl]-4-methyl-benzenesulphonamide] | – | – | – | – | – | – | – | – | 34 | 62 | 64 | 86 | 11 | 6 | 90 |
| CC(C)(C)c1ccc(S(=O)(=O)NC2CCN(CCCc3noc4cc(F)ccc34)CC2)cc1 [Compound 328, 4-tert-Butyl-N-[1-[3-(6-fluoro-1,2-benzoxazol-3-yl)propyl]-4-piperidyl]benzenesulphonamide] | – | – | – | – | – | – | – | – | 40 | 94 | 64 | 96 | 49 | 25 | 90 |
| O=S(=O)(NCC1CCN(CCCc2noc3cc(F)ccc23)C1)c1cccc(Cl)c1 (stereo not drawn) [Compound 243, 3-Chloro-N-[[1-[3-(6-fluoro-1,2-benzoxazol-3-yl)propyl]pyrrolidin-3-yl]methyl]benzenesulphonamide] | – | – | – | – | – | – | – | – | 47 | 75 | 14 | 90 | 21 | 7 | 89 |
| O=S(=O)(NCC1CCN(CCCc2noc3cc(F)ccc23)C1)c1ccc(Cl)cc1 (stereo not drawn) [Compound 242, 4-Chloro-N-[[1-[3-(6-fluoro-1,2-benzoxazol-3-yl)propyl]pyrrolidin-3-yl]methyl]benzenesulphonamide] | – | – | – | – | – | – | – | – | 71 | 60 | 55 | 99 | 11 | 37 | 83 |

From US20140135310A1, “SULPHONAMIDE DERIVATIVES OF ALICYCLIC AMINES FOR THE TREATMENT OF CENTRAL NERVOUS SYSTEM DISEASES” (Adamed Sp. z o.o., priority 2011, published 2014)
